What all share (experiment): GC-MS of decane overlay from E. coli expressing the synthase
Holding throughout (type): cell-based

Assay [1] has as its target T1, pentalenene synthase (PentS; codon-optimized coPentS) (Streptomyces exfoliatus, UniProt Q55012).
T1 construct: gene penA; codon-optimized gene, untagged, plasmids pTrc99a / pBbE7a / prstA, expressed in E. coli DH1; also in S. cerevisiae EPY300
T1 sequence (Q55012 2-337): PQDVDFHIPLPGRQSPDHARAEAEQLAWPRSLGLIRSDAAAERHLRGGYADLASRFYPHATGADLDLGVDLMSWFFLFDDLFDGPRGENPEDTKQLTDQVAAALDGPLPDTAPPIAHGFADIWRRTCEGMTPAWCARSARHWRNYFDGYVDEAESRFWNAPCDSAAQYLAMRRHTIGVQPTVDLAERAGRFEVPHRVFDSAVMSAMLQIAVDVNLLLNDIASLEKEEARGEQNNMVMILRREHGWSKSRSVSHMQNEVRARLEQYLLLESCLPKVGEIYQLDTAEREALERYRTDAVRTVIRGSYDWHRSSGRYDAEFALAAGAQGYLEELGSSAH
As to conditions: product pentalenene (single product); endogenous FPP supply, no FPP added.

The target of assay [2] is T2, α-isocomene synthase (MrTPS2; codon-optimized coMrTPS2) (Matricaria chamomilla, UniProt I6R4V5).
T2 construct: codon-optimized gene, untagged, plasmids pTrc99a / pBbE7a / prstA, expressed in E. coli DH1
T2 sequence (I6R4V5 1-546): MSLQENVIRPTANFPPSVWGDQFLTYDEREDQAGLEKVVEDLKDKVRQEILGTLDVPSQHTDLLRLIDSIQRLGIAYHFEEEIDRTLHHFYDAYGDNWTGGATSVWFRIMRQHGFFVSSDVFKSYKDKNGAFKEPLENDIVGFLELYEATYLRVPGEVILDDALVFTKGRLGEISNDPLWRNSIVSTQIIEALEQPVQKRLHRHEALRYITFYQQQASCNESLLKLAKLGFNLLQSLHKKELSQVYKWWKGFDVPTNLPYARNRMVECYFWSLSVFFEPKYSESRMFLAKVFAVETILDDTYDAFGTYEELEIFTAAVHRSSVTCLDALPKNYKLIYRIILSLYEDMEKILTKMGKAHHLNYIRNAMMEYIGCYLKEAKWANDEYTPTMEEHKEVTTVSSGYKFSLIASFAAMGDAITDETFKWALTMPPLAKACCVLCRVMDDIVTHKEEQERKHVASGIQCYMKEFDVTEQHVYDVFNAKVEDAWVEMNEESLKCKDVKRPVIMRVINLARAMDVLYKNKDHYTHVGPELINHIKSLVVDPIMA
The conditions noted are these: main product alpha-isocomene with silphinene, modephene, beta-isocomene, caryophyllene, alpha-humulene; endogenous FPP supply, no FPP added.

Assay [3] deals with T3, epi-isozizaene synthase (EIZS; codon-optimized coEIZS) (Streptomyces coelicolor, UniProt Q9K499).
T3 construct: gene cyc1; codon-optimized gene, untagged, plasmids pTrc99a / pBbE7a / prstA, expressed in E. coli DH1
T3 sequence (Q9K499 1-361): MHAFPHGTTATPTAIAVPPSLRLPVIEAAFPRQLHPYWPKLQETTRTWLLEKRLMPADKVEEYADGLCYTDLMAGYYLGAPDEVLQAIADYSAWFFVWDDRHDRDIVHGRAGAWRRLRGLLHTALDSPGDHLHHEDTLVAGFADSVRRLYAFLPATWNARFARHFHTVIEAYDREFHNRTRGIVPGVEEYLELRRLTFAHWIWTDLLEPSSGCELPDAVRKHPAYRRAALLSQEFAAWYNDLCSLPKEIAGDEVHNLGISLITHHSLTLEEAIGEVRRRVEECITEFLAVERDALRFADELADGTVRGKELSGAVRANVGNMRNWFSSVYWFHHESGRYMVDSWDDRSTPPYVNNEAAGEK
As to conditions: product epi-isozizaene (single product); endogenous FPP supply, no FPP added.

Here are results for 1 molecule from publication PMC6195743, “Renewable production of high density jet fuel precursor sesquiterpenes from Escherichia coli” (Biotechnology for Biofuels, 2018).

On to `CC(C)=CCC/C(C)=C/CC/C(C)=C/COP(=O)(O)OP(=O)(O)O` [farnesyl diphosphate], for which the “GC-MS of decane overlay from E. coli expressing the synthase” value in assay [1] was “cultures expressing coEIZS and coPentS produced single products”; in assay [2] it was “culture expressing coMrTPS2 produced a broad spectrum of compounds, including α-isocomene”; in assay [3] it was “cultures expressing coEIZS and coPentS produced single products”.
